Data reported in publication PMC9465178, “Cinnamaldehyde derivatives act as antimicrobial agents against Acinetobacter baumannii through the inhibition of cell division” (Frontiers in Microbiology, 2022).
≈ marks a conversion by molar mass, not a printed value.

Assays:
Caenorhabditis elegans = test: Nematode toxicity (survival); assay type: in vivo; conditions: 1 × and 2 × MIC, up to 72 h, 25°C
Description: Protocols for growing, harvesting, and synchronizing C. elegans have been previously described ([Porta-de-la-Riva et al., 2012]; [Chai et al., 2020]) and were performed with the following modifications. The nematodes were treated with LXC compounds 1 to 6 at 1 × and 2 × MIC with at least 3 replicates using a final DMSO concentration of 2% (v/v). The plate was incubated at 25°C and the number of live vs dead nematodes was enumerated every 24 h for 72 h. […] The percentage of living nematodes at each time point across 72 h was calculated to give the percentage of survival.
FIGURE 10 The LXC compounds (apart from compound 5) were not cytotoxic to C. elegans nematodes. (A–F) C. elegans nematodes were cultured on nematode growth media agar plate and harvested in optimized growth media, with E. coli as its primary source of nutrient. […] The nematodes were counted under a light microscope at 400× magnification and the live nematodes at 72 h was indicated as a fraction of the starting number of nematodes (percentage survival). The results are presented in mean percentage of survival ± SEM. Statistical analysis was performed using two-way ANOVA and the asterisks (*) represent statistical significance: LXC 41 (5) at time 72 h (*p < 0.05).

A. baumannii ATCC 19606 = test: Cell division phenotype by light microscopy; assay type: cell-based, Acinetobacter baumannii; conditions: LXC compounds at 2 × MIC
Description: Morphological changes of bacteria when exposed to the compounds were assessed microscopically using the assay as previously described ([Chai et al., 2020]). Eppendorf® tubes were set up with A. baumannii ATCC 19606 as described for the time-kill assays. At time 0, 1, 3, 6, and 18 h, an aliquot of the bacterial suspension (1 μL) was transferred onto a glass slide and viewed under a light microscope (Olympus CX33®) at 100 × magnification. Representative images were captured using JENOPTIK GRYPHAX® imaging.
A 1 μL aliquot was taken out at varying timepoints (0, 1, 3, 6, and 18 h) and imaged by light microscopy. The images for 6 h are depicted here. […] The white arrow indicates “grooving” site, an indication of where separation of daughter cells should take place. Scale bar is 50 μm.
Four of the compounds (LXC 31, 33, 35 and 41) were tested at 1× and 2× their minimum inhibitory concentration (MIC) whereas LXC 36 and 43 were tested at 2× and 4× MIC. The phenotypic changes in A. baumannii morphology were analysed under a light microscope (100× magnification) at time 0, 1, 3, 6 and 18 h. Scale bar is 50 µm.

E. coli ATCC 25922 = test system: E. coli ATCC 25922; design: method as in Li et al., 2015a,b; conditions: ref Li et al., 2015a,b; cited from earlier work
[1] = test system: Pseudomonas aeruginosa ATCC 27853; design: method as in Li et al., 2015a,b; conditions: ref Li et al., 2015a,b; cited from earlier work
E. coli FtsZ = conditions: FtsZ from E. coli, 120 μg/mL; ref Li et al., 2015a; cited from earlier work
human red blood cells = test: Hemolysis assay; assay type: cell-based; conditions: fresh human RBCs, 1 h, 37°C, concentrations up to 4 × MIC (concentration in the value words)
Description: The hemolysis assay was performed using fresh human red blood cells (RBCs). […] These were performed in quadruplicate. Thereafter, 192 μL RBCs were added into all wells and the plates were incubated at 37°C under constant shaking (100 rpm) for 1 h. RBCs were precipitated by centrifugation of the plates (1,000× g for 3 min). An aliquot (100 μL) of each supernatant was transferred into a new 96-microwell plate and the A450 nm was determined using a PerkinElmer Enspire® plate reader. The fraction of intact RBC for each sample was determined as fraction of the intact RBCs for the sample without the addition of compounds (set at 100%) and plotted as a function of compound concentration.
A 1% (v/v) Triton X-100 was used to indicate complete RBC lysis (^‡). […] The assays were performed in quadruplicates. The plates were incubated at 37°C while constantly shaking at 100 rpm for 1 h. Intact RBCs were removed by centrifugation and the presence of hemolytic products in the supernatant were determined by measuring the absorbance at A450 nm. The results are presented in mean ± SEM. Statistical analysis was performed using one-way ANOVA and the asterisks (*) represent statistical significance (*p < 0.05; **p < 0.005; ***p < 0.0005; ****p < 0.0001).

Q: Which “Toxicity toward C. elegans (survival)” value (Caenorhabditis elegans) does the source give for `Cc1nc2ccccc2n1C(=O)/C=C/c1ccccc1` [Compound 1] here?
A: do not have in vivo toxicity in this model at 2 × MICs for up to 72 h

Q: And the “Time until elongated phenotype is seen” value (A. baumannii ATCC 19606)?
A: > 3 h

Q: And the MIC (E. coli ATCC 25922)?
A: 128 µg/mL (≈ 488 µM)

Q: And the MIC [1]?
A: 128 µg/mL (≈ 488 µM)

Q: Which “Toxicity toward C. elegans (survival)” value (Caenorhabditis elegans) does the source give for `Cc1nc2ccccc2n1C(=O)/C=C/c1ccc(F)cc1` [Compound 2] here?
A: do not have in vivo toxicity in this model at 2 × MICs for up to 72 h

Q: And the “Time until elongated phenotype is seen” value (A. baumannii ATCC 19606)?
A: ≤ 3 h

Q: What about the “Effect on FtsZ polymerization, light scattering” value (shortened to “Effect on FtsZ polymerization”) (E. coli FtsZ) of the same compound?
A: impaired polymerization

Q: With `Cc1nc2ccccc2n1C(=O)/C=C/c1ccc(Cl)cc1` [Compound 3] as the compound, how does the “Toxicity toward C. elegans (survival)” value (Caenorhabditis elegans) read?
A: do not have in vivo toxicity in this model at 2 × MICs for up to 72 h

Q: What about the “Time until elongated phenotype is seen” value (A. baumannii ATCC 19606) of the same compound?
A: ≤ 3 h

Q: And the “Effect on FtsZ polymerization” value (E. coli FtsZ)?
A: impaired polymerization

Q: With `Cc1nc2ccccc2n1C(=O)/C=C/c1ccc(Br)cc1` [Compound 4] as the compound, how does the Hemolytic activity (human red blood cells) read?
A: devoid of hemolytic activity even at the highest concentration tested (4 × MIC, Figure 9D)

Q: What about the “Time until elongated phenotype is seen” value (A. baumannii ATCC 19606) of the same compound?
A: ≤ 3 h

Q: What does the source list for `COc1ccc(/C=C/C(=O)n2c(C)nc3ccccc32)cc1OC` [Compound 5]?
A: Hemolytic activity (human red blood cells): only non-lytic at a low concentration (0.25 × MIC, Figure 9E); Toxicity toward C. elegans (survival) (Caenorhabditis elegans): significant toxicity (p < 0.05) but only after 72 h treatment

Q: Which “Toxicity toward C. elegans (survival)” value (Caenorhabditis elegans) does the source give for `Cc1nc2ccccc2n1C(=O)/C=C/c1ccc(Cl)cc1Cl` [Compound 6] here?
A: devoid of hemolytic activity and cytotoxicity against mammalian cells in vitro, as well as adverse activity in a Caenorhabditis elegans nematode model

Q: What about the “Time until elongated phenotype is seen” value (A. baumannii ATCC 19606) of the same compound?
A: ≤ 3 h

Q: And the “Effect on FtsZ polymerization” value (E. coli FtsZ)?
A: impaired polymerization
